Measurements: the NIST ThermoML archive (doi:10.1021/je060271a)
Numbers after ± are expanded uncertainties.

Settings: 343.15 K, Liquid, Vibrating tube method

CCCCCC(=O)OCC(COC(=O)CCCCC)(COC(=O)CCCCC)COC(=O)CCCCC [pentaerythritol tetrahexanoate]
Settings | mass density [kg/m3]
1134.6 kPa | 957.9 ± 1.2
1280.5 kPa | 958.2 ± 1.2
1295.1 kPa | 958.1 ± 1.2
1307.6 kPa | 958.1 ± 1.2
1320.1 kPa | 958.1 ± 1.2
1332.9 kPa | 958.2 ± 1.2
1348.2 kPa | 958.2 ± 1.2
1414.9 kPa | 958.2 ± 1.2
1428.2 kPa | 958.2 ± 1.2
1444 kPa | 958.2 ± 1.2
1457.4 kPa | 958.2 ± 1.2
1470.4 kPa | 958.2 ± 1.2
1483.5 kPa | 958.1 ± 1.2
1513.7 kPa | 958.3 ± 1.2
1557.9 kPa | 958.3 ± 1.2
1571.7 kPa | 958.3 ± 1.2
1588.7 kPa | 958.4 ± 1.2
1603.1 kPa | 958.4 ± 1.2
1617.5 kPa | 958.4 ± 1.2
1697.7 kPa | 958.3 ± 1.2
1713.1 kPa | 958.5 ± 1.2
1728.4 kPa | 958.5 ± 1.2
1747.5 kPa | 958.3 ± 1.2
1763.5 kPa | 958.4 ± 1.2
1779.3 kPa | 958.3 ± 1.2
1795.9 kPa | 958.4 ± 1.2
1815 kPa | 958.5 ± 1.2
1831.3 kPa | 958.5 ± 1.2
1848.3 kPa | 958.5 ± 1.2
1865 kPa | 958.4 ± 1.2
1884.9 kPa | 958.5 ± 1.2
1902.5 kPa | 958.6 ± 1.2
1920.5 kPa | 958.6 ± 1.2
1937.8 kPa | 958.6 ± 1.2
1958.6 kPa | 958.5 ± 1.2
1976.1 kPa | 958.6 ± 1.2
1993.6 kPa | 958.7 ± 1.2
2012 kPa | 958.6 ± 1.2
2033.4 kPa | 958.6 ± 1.2
2051.6 kPa | 958.6 ± 1.2
2070.2 kPa | 958.9 ± 1.2
2092.2 kPa | 958.6 ± 1.2
2363.6 kPa | 958.8 ± 1.2
2384.2 kPa | 958.9 ± 1.2
2409 kPa | 959 ± 1.2
2429.7 kPa | 959 ± 1.2
2451.3 kPa | 959 ± 1.2
2477.2 kPa | 959.1 ± 1.2
2710.1 kPa | 959.1 ± 1.2
2733 kPa | 959.1 ± 1.2
2756.2 kPa | 959.1 ± 1.2
2778.8 kPa | 959.3 ± 1.2
2805.7 kPa | 959.1 ± 1.2
2828.2 kPa | 959.3 ± 1.2
2850.2 kPa | 959.4 ± 1.2
2877.4 kPa | 959.2 ± 1.2
2900.2 kPa | 959.2 ± 1.2
2971.9 kPa | 959.4 ± 1.2
2994.1 kPa | 959.4 ± 1.2
3021 kPa | 959.5 ± 1.2
3043.4 kPa | 959.5 ± 1.2
3066.1 kPa | 959.4 ± 1.2
3093.1 kPa | 959.5 ± 1.2
3115.3 kPa | 959.5 ± 1.2
3138.2 kPa | 959.4 ± 1.2
3165.6 kPa | 959.5 ± 1.2
3188.6 kPa | 959.5 ± 1.2
3212 kPa | 959.6 ± 1.2
3235.3 kPa | 959.5 ± 1.2
3263.5 kPa | 959.6 ± 1.2
3286.6 kPa | 959.7 ± 1.2
3314.6 kPa | 959.6 ± 1.2
3338.4 kPa | 959.7 ± 1.2
3362.1 kPa | 959.6 ± 1.2
3386.4 kPa | 959.6 ± 1.2
3410.3 kPa | 959.6 ± 1.2
3439.1 kPa | 959.8 ± 1.2
3463 kPa | 959.8 ± 1.2
3486.9 kPa | 959.8 ± 1.2
3514.8 kPa | 959.7 ± 1.2
3538.6 kPa | 959.8 ± 1.2
3563 kPa | 959.8 ± 1.2
3592.3 kPa | 959.9 ± 1.2
3616.2 kPa | 960 ± 1.2
3640.6 kPa | 959.9 ± 1.2
3665.4 kPa | 959.8 ± 1.2
3695 kPa | 959.9 ± 1.2
3719.3 kPa | 959.8 ± 1.2
3743.2 kPa | 960 ± 1.2
3768 kPa | 960 ± 1.2
3796.7 kPa | 960 ± 1.2
3821.2 kPa | 960 ± 1.2
4008.1 kPa | 960.2 ± 1.2
4035.6 kPa | 960.1 ± 1.2
4062.6 kPa | 960.2 ± 1.2
4089.1 kPa | 960.2 ± 1.2
4120.6 kPa | 960.3 ± 1.2
4147.6 kPa | 960.4 ± 1.2
4174.5 kPa | 960.3 ± 1.2
4201.5 kPa | 960.3 ± 1.2
4234.2 kPa | 960.2 ± 1.2
4261.2 kPa | 960.4 ± 1.2
4288.4 kPa | 960.4 ± 1.2
4316.6 kPa | 960.4 ± 1.2
4350.4 kPa | 960.4 ± 1.2
4378.3 kPa | 960.5 ± 1.2
4414.7 kPa | 960.4 ± 1.2
4437.5 kPa | 960.5 ± 1.2
4465.6 kPa | 960.6 ± 1.2
4499.5 kPa | 960.5 ± 1.2
4528.1 kPa | 960.6 ± 1.2
4557.2 kPa | 960.6 ± 1.2
4592.3 kPa | 960.7 ± 1.2
4621.6 kPa | 960.6 ± 1.2
4656.7 kPa | 960.6 ± 1.2
4686.5 kPa | 960.7 ± 1.2
4715.9 kPa | 960.6 ± 1.2
4751.9 kPa | 960.8 ± 1.2
4781.7 kPa | 960.8 ± 1.2
4812.3 kPa | 960.7 ± 1.2
4843.3 kPa | 960.8 ± 1.2
4880.7 kPa | 960.9 ± 1.2
4911.1 kPa | 960.8 ± 1.2
4942.3 kPa | 961 ± 1.2
4973.8 kPa | 960.9 ± 1.2
5010.3 kPa | 960.9 ± 1.2
5041.6 kPa | 960.9 ± 1.2
5073.3 kPa | 961 ± 1.2
5110.1 kPa | 961 ± 1.2
5141.5 kPa | 960.9 ± 1.2
5173.8 kPa | 961 ± 1.2
5212.2 kPa | 961.1 ± 1.2
5245.4 kPa | 961.1 ± 1.2
5277.4 kPa | 961.2 ± 1.2
5309.8 kPa | 961.2 ± 1.2
5348.9 kPa | 961.2 ± 1.2
5381.6 kPa | 961.3 ± 1.2
5415.2 kPa | 961.3 ± 1.2
5454.8 kPa | 961.2 ± 1.2
5488.1 kPa | 961.3 ± 1.2
5521.5 kPa | 961.3 ± 1.2
5555.1 kPa | 961.3 ± 1.2
5594.9 kPa | 961.4 ± 1.2
5627.9 kPa | 961.3 ± 1.2
5662.1 kPa | 961.3 ± 1.2
